Data: patent US20140329753A1, “Angiogenic active lytic peptides” (priority 2013, published 2014)
Entries after “also recorded” stand apart in the source; their conditions may differ.

Tests used:
angiogenesis = assay: Matrigel deposit implant test for angiogenic activity (acceleration or inhibition), FGF1-induced; type: in vivo, mice; design: key to top score seen in Matrigel deposits: no + sign would yield a value of 0, as in A in FIG. 13; B in FIG. 13 would yield a score of +++; ++++: 0 to 4 plus (+) scale; details: for top score seen in Matrigel deposits: 0 to 4 plus (+) scale, only top level scores of the experiment
From the text: Matrigel deposits were surgically implanted on both sides of 4 mice per treatment yielding a possible 8 samples per treatment. Matrigel is a polymeric substance that appears to be relatively inert in animals and it can serve as a matrix that allows experimentation in vivo on many different difficult-to-study-processes. Prior to implantation, the Matrigel was allowed to imbibe fibroblast growth factor 1 (FGF1). This protein is a powerful inducer of angiogenesis and its presence guarantees that sufficient activity will be observed within the allotted time period of the experiment. Therefore, any inhibition of angiogenesis is likely to be a real phenomenon as the experiment has been set to heavily favor the angiogenic process. Angiogenesis occurs by day 14 and beginning Day 1 (Day 0=day of implantation), mice were injected IP daily with 20 μg of peptide in 100 μl of normal saline. The animals were sacrificed on Day 14, and each Matrigel deposit divided longitudinally and fixed in 10% buffered formalin. One of the halves of each Matrigel deposit was then sectioned. Read-out for this experiment was via histology, with semi-quantitative/qualitative counting of migration of cells and their subsequent assembly of lumenal structures within the Matrigel. This method allows us to observe the full physiologic spectrum of effects, and was useful in delineating trends. […] In FIG. 13, A represents what a section of a Matrigel gel deposit looks like under the microscope soon after surgical implantation. The sample in B is derived from the control at the conclusion of the experiment. Intense activity is present with numerous cells attaching to the surface of the Matrigel. Cells begin to penetrate the deposit and organize into discrete structures that coalesce to form the beginning of tubes twisting and branching in many directions. These venules eventually connect with the system carrying blood and it is possible to see red cells and lymphocytes within them. This process is called “arborization”, derived from the fact that the angiogenic process most closely resembles the growth of roots and branches of trees. All but two of the peptide treatments looked, more or less, like B (all the peptides of Table 1 were tested). In C, a typical sample from the peptide C-1 (SEQ ID NO: 24) treatment is shown. […] Consequently, there were far fewer cells and cellular structures inside of the Matrigel. […] There were large regions of Matrigel that had no visibly associated structures and few single cells, including on the periphery, while other regions had some limited activity.
This system ranks each sample using a 0 to 4 plus (+) scale. Thus, B in FIG. 13 would yield a score of +++ while no + sign would yield a value of 0, as in A in FIG. 13. In Table 3 the data is modified to a numerical form and plotted averages are shown.

[1] = test system: Feline Immunodeficiency virus FIV; assay: Peptide treatment of a lion infected with FIV (CD4+/CD8+ cell counts); type: in vivo; details: weekly 70 mg I.M injections
From the text: Nasty is a male lion in North Carolina Zoological Park. He was diagnosed to suffer Feline Immunodeficiency virus FIV. FIV attacks the immune system of cats, much like the human immunodeficiency virus (HIV) attacks the immune system of human beings. FIV infects many cell types in its host, including CD4+ and CD8+T lymphocytes, B lymphocytes, and macrophages. FIV eventually leads to debilitation of the immune system in its feline hosts by the infection and exhaustion of T-helper (CD4+) cells.
Nasty was treated weekly with 70 mg I.M injections of JC15-10N.

arthritis = assay: Treatment of a patient with arthritis (x-ray of ankle joints); type: in vivo; details: 10 mg subcutaneous once a week for one month, then once a month
Experimental: A patient with arthritis was treated by subcutaneous injection of 10 mg once a week for one month and then once a month for maintenance doses. A visible indication of arthritis is calcification of joints.

tumors = assay: In vivo anti-tumor activity of injected peptide in animal tumor models
[2] = mice, 20 μg peptide IP daily, Day 14 histology

FAKKFAKFAF [JC15-10C]
angiogenic / anti-angiogenic activity in Matrigel deposits (in words) (angiogenesis; [2]): inactive

FAKKFAKKFK [JC15-10N]
angiogenic / anti-angiogenic activity in Matrigel deposits (in words) (angiogenesis; [2]): possesses anti-angiogenic activity | absolute CD4+ cell counts [1]: stabilized the CD4+ cell counts | absolute CD8+ cell counts [1]: the cell counts began to rise | calcification of the ankle joints (arthritis): disappeared

FAKKFAKKFKKF [JC15-12N]
top score seen in Matrigel deposits (angiogenesis): ++++ | angiogenic / anti-angiogenic activity in Matrigel deposits (in words) (angiogenesis; [2]): levels of activity higher than the control; also recorded: cannot exert an anti-angiogenic effect; also recorded: does not inhibit angiogenesis

FAKKFAKKFKKFAKKFAK [JC15-18N]
angiogenic / anti-angiogenic activity in Matrigel deposits (in words) (angiogenesis; [2]): levels of activity higher than the control; also recorded: cannot exert an anti-angiogenic effect

FAKKFAKKFKKFAKKFAKFAFAF [JC15]
% Diff. (angiogenesis; difference of mean score from Control (2.50)): 4.00% | angiogenic activity score, Mean (angiogenesis; mean of samples, mice, 20 μg peptide IP daily, Day 14, 0 to 4 plus scale): 2.60 | angiogenic / anti-angiogenic activity in Matrigel deposits (in words) (angiogenesis; [2]): closer to the control; also recorded: cannot exert an anti-angiogenic effect | angiogenic activity score, Sample 1 (angiogenesis; mice, FGF1-imbibed Matrigel, 20 μg peptide IP daily, Day 14 histology, 0 to 4 plus scale, sample 1): 3 | angiogenic activity score, Sample 2 (angiogenesis; mice, FGF1-imbibed Matrigel, 20 μg peptide IP daily, Day 14 histology, 0 to 4 plus scale, sample 2): 2 | angiogenic activity score, Sample 3 (angiogenesis; mice, FGF1-imbibed Matrigel, 20 μg peptide IP daily, Day 14 histology, 0 to 4 plus scale, sample 3): 3 | angiogenic activity score, Sample 4 (angiogenesis; mice, FGF1-imbibed Matrigel, 20 μg peptide IP daily, Day 14 histology, 0 to 4 plus scale, sample 4): 2 | angiogenic activity score, Sample 5 (angiogenesis; mice, FGF1-imbibed Matrigel, 20 μg peptide IP daily, Day 14 histology, 0 to 4 plus scale, sample 5): 3 | effect on tumors, peptide injected directly into the tumor (tumors; a few injections over a period of several days): tumors are permanently eliminated | effect on tumors, peptide injected in a site removed from the tumor (tumors; systemic activity, several animal tumor models, in some cases little activity): most of the tumors also disappeared

IVRRADRAAVPIVNLKDELL [C-1]
angiogenic / anti-angiogenic activity in Matrigel deposits (in words) (angiogenesis; [2]): far fewer cellular associations; also recorded: possess anti-angiogenic activity

KKFKKFAKKFAKFAF [JC15-15C]
top score seen in Matrigel deposits (angiogenesis): ++++ | angiogenic / anti-angiogenic activity in Matrigel deposits (in words) (angiogenesis; [2]): levels of activity higher than the control; also recorded: cannot exert an anti-angiogenic effect
